Measured values published in ChEMBL document CHEMBL1201862, “PubChem BioAssay data set” (2004).
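Cultured in 96-well plates, cells were exposed to test compound for 48 hours across five concentrations. GI50 is the concentration that inhibits growth by half.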 Activity calls are given as the source filed them. Cut-off read from the data, not from the text of the source: active = GI50 up to about 1.1 µM and inactive = higher.

What was measured:
Assay in all cases: DTP human tumour cell line panel, 48 h
UO-31 = test system: UO-31
SF-539 = test system: SF-539
A498 = test system: A498
SF-295 = test system: SF-295
NCI-H23 = test system: NCI-H23
ACHN = test system: ACHN
SNB-78 = test system: SNB-78
SF-268 = test system: SF-268
HCC 2998 = test system: HCC 2998
UACC-62 = test system: UACC-62
OVCAR-8 = test system: OVCAR-8
SK-OV-3 = test system: SK-OV-3
U-251 = test system: U-251
HCT-15 = test system: HCT-15
A549 = test system: A549
HOP-92 = test system: HOP-92
HL-60 = test system: HL-60
OVCAR-3 = test system: OVCAR-3

| Compound | GI50 (UO-31) | GI50 (SF-539) | GI50 (A498) | GI50 (SF-295) | GI50 (NCI-H23) | GI50 (ACHN) | GI50 (SNB-78) | GI50 (SF-268) | GI50 (HCC 2998) | GI50 (UACC-62) | GI50 (OVCAR-8) | GI50 (SK-OV-3) | GI50 (U-251) | GI50 (HCT-15) | GI50 (A549) | GI50 (HOP-92) | GI50 (HL-60) | GI50 (OVCAR-3) |
| --- | --- | --- | --- | --- | --- | --- | --- | --- | --- | --- | --- | --- | --- | --- | --- | --- | --- | --- |
| CN(C)CCNC(=O)c1cccc2ccc(-c3ccc(-c4ccccc4)cc3)nc12 | 11.7 µM (inactive) | 1.8 µM (inactive) | 3.44 µM (inactive) | 2.21 µM (inactive) | 5.69 µM (inactive) | 5.47 µM (inactive) | 14 µM (inactive) | 3.37 µM (inactive) | 1.83 µM (inactive) | 18.2 µM (inactive) | 2.56 µM (inactive) | 17 µM (inactive) | 2.14 µM (inactive) | 1.98 µM | 2.89 µM (inactive) | 3.02 µM (inactive) | 1.93 µM (inactive) | 6.01 µM (inactive) |
| COC(=O)NC(=O)c1cn(CCCOC(=O)CCCCCCCCC(=O)OCCCn2cc(C(=O)NC(=O)OC)c(=O)[nH]c2=O)c(=O)[nH]c1=O | > 100 µM (inactive) | 71.1 µM (inactive) | > 100 µM (inactive) | 47.3 µM (inactive) | 39.3 µM (inactive) | > 100 µM (inactive) | 78 µM (inactive) | 31.3 µM (inactive) | > 100 µM (inactive) | > 100 µM (inactive) | 23.9 µM (inactive) | – | – | > 100 µM | > 100 µM (inactive) | 36.7 µM (inactive) | > 100 µM (inactive) | > 100 µM (inactive) |
| CC(=O)NNc1nc(C)c(C(=O)/C=C/c2ccc(Cl)cc2)s1 | > 100 µM (inactive) | > 100 µM (inactive) | > 100 µM (inactive) | > 100 µM (inactive) | > 100 µM (inactive) | > 100 µM (inactive) | > 100 µM (inactive) | > 100 µM (inactive) | > 100 µM (inactive) | > 100 µM (inactive) | > 100 µM (inactive) | > 100 µM (inactive) | > 100 µM (inactive) | – | > 100 µM (inactive) | > 100 µM (inactive) | > 100 µM (inactive) | > 100 µM (inactive) |
| O=c1c2cc(Br)cc(Br)c2[nH]c(=S)n1-c1ccccc1 | 40.5 µM (inactive) | 83 µM (inactive) | > 100 µM (inactive) | > 100 µM (inactive) | 28.4 µM (inactive) | > 100 µM (inactive) | > 100 µM (inactive) | 52.4 µM (inactive) | 92.5 µM (inactive) | 91.2 µM (inactive) | 63 µM (inactive) | > 100 µM (inactive) | 85.5 µM (inactive) | 90.2 µM | 63.1 µM (inactive) | 28.9 µM (inactive) | – | 60.1 µM (inactive) |
| CCc1cc2c(c3[nH]ccc13)[C@@H](C)C[C@H]2C | 18.3 µM (inactive) | > 10 µM (inactive) | 15.6 µM (inactive) | 18.8 µM (inactive) | 17.8 µM (inactive) | 16.7 µM (inactive) | 16.4 µM (inactive) | – | 21.2 µM (inactive) | 16.9 µM (inactive) | 19.7 µM (inactive) | 30.5 µM (inactive) | 16.4 µM (inactive) | 14.4 µM | 19.6 µM (inactive) | 16.2 µM (inactive) | 21.8 µM (inactive) | 20 µM (inactive) |
| CCOC(=O)NC(=O)c1cn(CCCO)c(=O)[nH]c1=O | > 100 µM (inactive) | > 100 µM (inactive) | > 100 µM (inactive) | > 100 µM (inactive) | > 100 µM (inactive) | > 100 µM (inactive) | > 100 µM (inactive) | > 100 µM (inactive) | > 100 µM (inactive) | > 100 µM (inactive) | > 100 µM (inactive) | > 100 µM (inactive) | > 100 µM (inactive) | > 100 µM | > 100 µM (inactive) | > 100 µM (inactive) | – | > 100 µM (inactive) |
| CN(C)CC1CCCC(CN(C)C)C1=NOC(=O)c1ccccc1 (stereo unspecified) | > 100 µM (inactive) | > 100 µM (inactive) | > 100 µM (inactive) | > 100 µM (inactive) | > 100 µM (inactive) | > 100 µM (inactive) | > 100 µM (inactive) | > 100 µM (inactive) | > 100 µM (inactive) | > 100 µM (inactive) | > 100 µM (inactive) | > 100 µM (inactive) | > 100 µM (inactive) | > 100 µM | > 100 µM (inactive) | > 100 µM (inactive) | > 100 µM (inactive) | > 100 µM (inactive) |
| CN(CCN(C)C(=O)CCOS(C)(=O)=O)C(=O)CCOS(C)(=O)=O | – | 44.1 µM (inactive) | > 100 µM (inactive) | > 100 µM (inactive) | > 100 µM (inactive) | > 100 µM (inactive) | > 100 µM (inactive) | 77.8 µM (inactive) | > 100 µM (inactive) | 43.5 µM (inactive) | > 100 µM (inactive) | > 100 µM (inactive) | > 100 µM (inactive) | > 100 µM | > 100 µM (inactive) | > 100 µM (inactive) | 30.9 µM (inactive) | > 100 µM (inactive) |
| CSc1nc(NC2OCC(OC(C)=O)C(OC(C)=O)C2OC(C)=O)c2c(OC(C)=O)c(C)c(=O)oc2n1 (stereo unspecified) | > 100 µM (inactive) | > 100 µM (inactive) | > 100 µM (inactive) | > 100 µM (inactive) | > 100 µM (inactive) | > 100 µM (inactive) | > 100 µM (inactive) | – | > 100 µM (inactive) | > 100 µM (inactive) | > 100 µM (inactive) | > 100 µM (inactive) | > 100 µM (inactive) | > 100 µM | > 100 µM (inactive) | 71.6 µM (inactive) | > 100 µM (inactive) | > 100 µM (inactive) |
| CC1=C(C)C(=O)c2c(cc3ccc4ccccc4n23)C1=O | > 100 µM (inactive) | > 100 µM (inactive) | > 100 µM (inactive) | > 100 µM (inactive) | > 100 µM (inactive) | > 100 µM (inactive) | > 100 µM (inactive) | > 100 µM (inactive) | > 100 µM (inactive) | > 100 µM (inactive) | > 100 µM (inactive) | > 100 µM (inactive) | > 100 µM (inactive) | > 100 µM | > 100 µM (inactive) | – | > 100 µM (inactive) | > 100 µM (inactive) |
| CC1CCP(=O)(c2ccccc2)CC1 (stereo unspecified) | > 100 µM (inactive) | > 100 µM (inactive) | > 10 µM (inactive) | > 100 µM (inactive) | > 100 µM (inactive) | > 100 µM (inactive) | > 100 µM (inactive) | > 100 µM (inactive) | > 100 µM (inactive) | > 100 µM (inactive) | > 100 µM (inactive) | > 100 µM (inactive) | > 100 µM (inactive) | > 100 µM | > 100 µM (inactive) | – | > 100 µM (inactive) | > 100 µM (inactive) |
| CCOC(=O)N1C(=O)C2C3C=CC(C2C1=O)C1C2C(=O)N(C(=O)OCC)C(=O)C2C31 (stereo unspecified) | > 100 µM (inactive) | > 100 µM (inactive) | > 100 µM (inactive) | > 100 µM (inactive) | > 100 µM (inactive) | > 100 µM (inactive) | > 100 µM (inactive) | > 81.3 µM (inactive) | > 100 µM (inactive) | > 100 µM (inactive) | > 100 µM (inactive) | > 100 µM (inactive) | > 68.1 µM (inactive) | > 47.2 µM | > 100 µM (inactive) | > 100 µM (inactive) | 20.3 µM (inactive) | > 100 µM (inactive) |
